Laboratory results published in publication PMC9867837 (Cancer letters, 2022).
Read-outs that look alike come from different tables or passages of the source.

Columns and labels:
CYP3A = CYP3A (Homo sapiens, UniProt P08684); experiment: CYP inhibition, CYP3A; assay type: in vitro ADME
Experimental: The in vivo activity of a compound is influenced by its overall bioavailability, which is also driven by parameters, such as solubility, permeability, and metabolism. […] These values are all above the industry cut-off of 60 μg/ml. […] It has CLint in human hepatocytes of 16 μL/min/10^6 cells, which falls into moderate stability range [43].

[1] = tested on: MDA-MB-231 tumor xenografts; experiment: Subcutaneous MDA-MB-231 xenografts in athymic nude mice; assay type: in vivo
Experimental: Mice were housed in specific pathogen-free conditions in the animal facility. All animal experiments were conducted in accordance with the recommendations in the Guide for the Care and Use of Laboratory Animals on a protocol approved by the Institutional Animal Care and Use Committee (IACUC). Subcutaneous xenograft studies were performed as previously reported. Five-week-old female athymic nude mice were purchased from Envigo (Indianapolis, IN) or Charles River (Wilmington, MA) and maintained in the institutional animal facilities approved by the American Association for Accreditation of Laboratory Animal Care. […] Tumor sizes were monitored every 3–4 days, measured with calipers, and converted to tumor volume, V, according to the formula V = 0.52 × a^2 × b, where a, smallest superficial diameter, and b, largest superficial diameter. For each treatment group, the tumor volumes for each set of measurements were statistically analyzed relative to the control (DMSO-treated; 70% DMSO with sterile PBS) group.
Constitutively-active Stat3 promotes primary tumor development and the progression to therapy resistance. We proceeded to evaluate the in vivo antitumor efficacy against tumor growth in both human xenograft and mouse syngeneic models of TNBC. In four separate studies, we tested the efficacy of H182, H278 (HCl salt of H182), and H120. For these xenografts, the human breast cancer, MDA-MB-231 cells were injected subcutaneously into athymic nude mice. When tumors were palpable (80–120 mm^3), mice were grouped so that the mean tumor sizes were identical between groups and treated as follows: A) intraperitoneal (IP) injections of H182 at 10 mg/kg every other day for 33 days; B) oral gavage of H182 every day at 5 mg/kg for 20 days, and then increased to 20 mg/kg for additional 12 days; and C) oral gavage of H120 at 20 mg/kg, daily for 14 days, and then increased to 30 mg/kg, daily for additional 14 days.

[2] = tested on: pS727Stat3, pYStat1, pY416Src, pY1068EGFR, pShc, pErk1/2MAPK, pS473Akt, and pJAK2; experiment: Western blotting for other signaling proteins in TNBC cells; assay type: cell-based, human; conditions: MDA-MB-231 and MDA-MB-468, 0.5–3 μM H182 for 2 h
Experimental: These studies were performed as previously described. Details are presented in Supplementary Information, “Methods”.
We sought to assess any non-specific effects of the azetidine compounds. […] Samples of equal total protein were subjected to SDS-PAGE and Western blotting analysis. […] The total protein levels were unchanged, and the tubulin, β-actin, and GAPDH levels show equal protein loading.
(§1) These studies were performed as previously described [1 -3] . Briefly, snap-frozen tumor tissues or cultured cells treated or not were harvested and whole-cell or tissue lysates were prepared in radioimmunoprecipitation assay (RIPA) buffer. Samples of equal total protein were subjected to SDS - PAGE and immunoblotting analysis. Primary antibodies used were anti- Stat3, pY705-Stat3, pS727Stat3, […]
(§2) Akt, pT202/Y204Erk1/2 (p44/42), Erk1/2, PARP , caspase 3, c-Myc, survivin, VEGF, β-actin, α/β-tubulin, and GAPDH. For the studies of the effects of cell density and confluence on pY705Stat3, cells were seeded […] in culture dishes. The next day, cells were untreated (DMSO control, […]
(§3) concentration of H182 for 6 h and then treated with 0- 100 nM docetaxel or 0-20 µM cisplatin for a total of 72 h. Viable cell numbers were assessed by a CyQuant cell proliferation kit according to the manufacturer’s instructions (Thermo/Life Technologies Corp, Carlsbad, CA). […]

Plasma stability, mouse = assay type: in vitro ADME
Experimental: (§4) Solubility, human (HLM) and mouse liver microsomal (MLM), and plasma stability studies were performed by Eurofins Cerep Panlabs and Eurofin Discovery Services (www.eurofins.com/PharmaDiscovery), while protein binding studies were performed by Sanford Burnham Prebys Chemical Biology & Drug Discovery Core using standard protocols.

[3] = Human liver microsome stability; assay type: in vitro ADME; conditions: liver microsomes, read-out: Metabolic Stability HLM t1/2
Experimental: as §4

Stat3 = Stat3 (Homo sapiens, UniProt P40763); experiment: Stat3 activity and target gene expression in extracted tumor tissues; assay type: in vivo, mouse; parameters: Tissue lysates of equal total protein prepared from the extracted tumors; from tissue; host or cells: extracted tumour tissue from treated and untreated mice
Experimental: We then profiled tumor tissues for Stat3 activity and Stat3 target gene expression as pharmacodynamic markers of therapeutic response. Tissue lysates of equal total protein prepared from the extracted tumors were subjected to Stat3 DNA-binding assay/EMSA analysis or SDS-PAGE and immunoblotting analysis.
as §1, §2, §3

Stat3, sequence (P40763 2-770 limits assumed): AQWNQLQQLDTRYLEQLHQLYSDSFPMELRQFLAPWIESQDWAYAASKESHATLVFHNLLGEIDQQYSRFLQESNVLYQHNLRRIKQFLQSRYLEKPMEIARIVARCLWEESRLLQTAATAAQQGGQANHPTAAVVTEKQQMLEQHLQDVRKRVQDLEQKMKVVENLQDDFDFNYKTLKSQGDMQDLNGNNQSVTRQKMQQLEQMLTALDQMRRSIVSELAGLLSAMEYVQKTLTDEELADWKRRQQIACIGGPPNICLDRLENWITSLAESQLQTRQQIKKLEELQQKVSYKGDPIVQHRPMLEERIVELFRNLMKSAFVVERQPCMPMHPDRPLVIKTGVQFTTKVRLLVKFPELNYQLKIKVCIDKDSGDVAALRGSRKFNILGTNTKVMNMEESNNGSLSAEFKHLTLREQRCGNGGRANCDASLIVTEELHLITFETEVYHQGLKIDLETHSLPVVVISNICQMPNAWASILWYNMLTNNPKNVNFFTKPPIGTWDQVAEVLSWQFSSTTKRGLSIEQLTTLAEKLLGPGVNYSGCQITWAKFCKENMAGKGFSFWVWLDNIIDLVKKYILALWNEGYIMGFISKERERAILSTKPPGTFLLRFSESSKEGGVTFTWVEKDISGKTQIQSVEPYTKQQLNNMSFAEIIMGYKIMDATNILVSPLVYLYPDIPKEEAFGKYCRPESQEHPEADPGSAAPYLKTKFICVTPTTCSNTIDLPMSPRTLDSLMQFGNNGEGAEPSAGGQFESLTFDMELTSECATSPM
CYP3A, sequence (P08684 2-503): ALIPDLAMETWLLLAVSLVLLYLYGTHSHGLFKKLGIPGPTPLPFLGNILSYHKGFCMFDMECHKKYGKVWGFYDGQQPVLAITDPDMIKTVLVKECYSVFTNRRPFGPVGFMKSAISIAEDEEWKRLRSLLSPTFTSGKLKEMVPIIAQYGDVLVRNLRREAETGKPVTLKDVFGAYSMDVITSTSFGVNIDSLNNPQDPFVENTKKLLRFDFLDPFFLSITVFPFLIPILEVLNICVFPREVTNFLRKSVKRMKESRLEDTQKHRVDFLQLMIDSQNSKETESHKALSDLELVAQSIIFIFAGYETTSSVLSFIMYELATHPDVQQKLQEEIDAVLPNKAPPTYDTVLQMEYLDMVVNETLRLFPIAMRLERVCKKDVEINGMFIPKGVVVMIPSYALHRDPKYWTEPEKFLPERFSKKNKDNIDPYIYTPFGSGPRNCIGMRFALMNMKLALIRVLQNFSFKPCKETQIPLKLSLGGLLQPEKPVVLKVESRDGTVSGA

## O=C([C@H]1CCN1S(=O)(=O)c1c(F)c(F)c(F)c(F)c1F)N(Cc1ccc(C2CCCCC2)cn1)c1ccc2c(=O)[nH]ncc2c1 [Compound H182]
CYP3A; probe midazolam, midazolam site, read-out: CYP Inhibition CYP3A (Midazolam) IC50
  IC50: 6.9 µM
CYP3A; probe testosterone, testosterone site, read-out: CYP Inhibition CYP3A (Testosterone) IC50
  IC50: 1.2 µM
[1]; H182 IP 10 mg/kg every other day for 33 days
  Tumor growth, MDA-MB-231 xenografts: significant tumor growth inhibition
[1]; H182 oral gavage daily 5 mg/kg for 20 days, then 20 mg/kg for 12 days
  Tumor growth, MDA-MB-231 xenografts: significant tumor growth inhibition
[1]; the three xenograft studies
  Body weights and obvious signs of toxicity: No notable changes
[2]
  Effect on constitutive or EGF-induced pS727Stat3, pYStat1, pY416Src, pY1068EGFR, pShc, pErk1/2MAPK, pS473Akt, and pJAK2: no inhibitory effect
Plasma stability, mouse; 1 h
  remaining at 1 h: 69%
Plasma stability, mouse; 2 h
  remaining at 2 h: 23%
[3]
  half-life: 21 min
Stat3; EMSA of tumor tissue lysates, treated vs untreated control
  Stat3 DNA-binding activity in tumor tissues: suppressed Stat3 DNA-binding activity in tumor tissues
Stat3; immunoblotting of tumor tissue lysates
  Expression of c-Myc, VEGF, and survivin in tumor tissues: suppression of the expression of Stat3 downstream genes
